Source: patent US20230143486A1, “METHODS OF GENERATING MIDBRAIN DOPAMINE NEURONS, MIDBRAIN NEURONS AND USES THEREOF” (MEMORIAL SLOAN-KETTERING CANCER CENTER, priority 2020, published 2023)

Columns and labels:
[1] = tested on: differentiated mDA cells from hPSC and hiPSC; experiment: mRNA expression of marker genes in differentiated mDA cells (Wnt-boost protocol with or without FGF18 and/or IWP2); assay type: cell-based, human
Experimental: hPSC and hiPSC were used for the differentiation methods. First, the effect of Wnt signaling on ALDH1A1 induction in mDA cells differentiated with different protocols was evaluated. The mRNA expression levels of FOXA2, LMX1A, EN1, WNT1, OTX2, ALDH1A1 and PAX6 were evaluated in day 16-differentiated mDA cells produced using Wnt-boost, Wnt-boost+IWP2 (day 10-day 16), and Wnt-boost+IWP2 (day 12-day 16) protocols, with or without FGF18 (day 12-16) (FIG. 1).
SMA mRNA expression level was not detectable. The Wnt-boost protocol in combination with FGF18 and IWP2 generated optimal A/P and DN patterned precursors, where more than 90% cells are FOXA2/EN1 double positive (FIG. 2A). […] Furthermore, The mRNA expression levels of FOXA2, LMX1A, OTX2, EN1, ALDH1A1, BARHL2, BARHL1, PAX6, ALDH2, and WNT1 were evaluated at day 16 in differentiated mDA cells produced using Wnt-boost, Wnt-boost+IWP2 (day 12-day 16) protocols, with or without FGF18 (FIG. 3). The effect of IWP2 on the expression of marker genes in the differentiated cells was determined. […] The present disclosure observed the presence of very high quadrupole positive cells at day 16 (FOXA2/LMX1A, OTX2/EN1). […] Additionally, the expression of ALDH1A1, WNT1, PITX3, DAT, DDC, VMTA2 were increased by the addition of IWP2 and FGF18, whereas IWP2 lowered the expression of Ki67, SMA and SIX1. Immuno-staining images of day 60-differentiated cells were collected showing the expression of FOXA2, TH, and MAP2 (FIG. 14A), and EN1 and TH (FIG. 14B).
The mRNA expression levels of FOXA2, LMX1A, OTX2, EN1, ALDH1A1, WNT1, BARHL1, PAX6, OTX2, and NKX2-2 were evaluated at day 16 in differentiated mDA cells produced using Wnt-boost, Wnt-boost+IWP2 (day 12-day 16) protocols, with or without FGF18. The present disclosure discovered that IWP2 exposure led to increased ALDH1A1 as well as high endogenous WNT1 expression at day 16 both in Wnt Boost and Wnt Boost+FGF18 conditions. Moreover, IWP2 exposure lowered PAX6 and NKX2-2 expression (FIG. 12).
The mRNA expression of marker genes in sorted day 28-differentiated CD49^weak/CD184^weak cells and CD49^weak/CD184^strong cells were measured (FIGS. 21 and 22).

hPSC-derived mDA neurons = experiment: Optimizing WNT inhibition in mDA neuron differentiation (qRT-PCR and ICC); assay type: cell-based, human
Description: This example is designed to optimize the temporal window and concentration of the WNT treatment, and to test whether reactivation of non-canonical signaling is required for optimal levels of mDA neuron differentiation or maturation. […] IWP2 inhibits both non-canonical signaling and canonical signaling. The expressions of PITX3, DAT, and VMAT2 are quantified by qRT-PCR and immunocytochemistry (ICC). […] Optimized conditions are validated across hPSC lines (3 hESC and 3 iPSC lines; >3 independent differentiations each) (Zimmer, et al. Proceedings of the National Academy of Sciences of the United States of America 115, […]-[…] (2018)) including male and female lines.

rodent GSK3β homologs = settings: cited from earlier work
ALK2, ALK3, and ALK6 = settings: cited from earlier work
[2] = day 16, both Wnt Boost and Wnt Boost+FGF18 conditions, IWP2 day 12-day 16

## Cc1ccc2nc(NC(=O)CSc3nc4c(c(=O)n3-c3ccccc3)SCC4)sc2c1 [IWP2]
[1]; Wnt-boost protocol, IWP2 day 12 to day 16
  expression of Ki67, SMA and SIX1: lowered
[1]; continued exposure until day 30, day 30-differentiated cells
  expression of ALDH1A1: further induced
[1]; day 16, IWP2 day 12-day 16
  PAX6 and NKX2-2 expression: lowered
[1]; [2]
  ALDH1A1 expression: increased
  endogenous WNT1 expression: high
[1]; exposure from day 12 to day 25, sorted day 28-differentiated cells, confirmed by immunofluorescent staining
  expression of ALDH1A1: further induced
hPSC-derived mDA neurons
  effect on the expression of EN1 or the emergence of contaminating markers (SIX1 and SMA): does not negatively affect

## Oc1nc(-c2ccc(C(F)(F)F)cc2)nc2c1CSCC2 [XAV939]
hPSC-derived mDA neurons; preliminary data (not shown)
  inhibition of canonical signaling alone: results comparable to the IWP2 treatment: might not be sufficient

## Cc1c[nH]c(-c2cnc(NCCNc3ccc(C#N)cn3)nc2-c2ccc(Cl)cc2Cl)n1 [CHIR99021, 6-(2-(4-(2,4-dichlorophenyl)-5-(4-methyl-1H-imidazol-2-yl)pyrimidin-2-ylamino)ethylamino)nicotinonitrile]
Rodent GSK3β homologs
  IC50 values against rodent GSK3β homologs: nanomolar

## c1ccc2c(-c3cnn4cc(-c5ccc(N6CCNCC6)cc5)cnc34)ccnc2c1 [LDN193189, 4-(6-(4-(piperazin-1-yl)phenyl)pyrazolo[1,5-a]pyrimidin-3-yl)quinoline]
ALK2, ALK3, and ALK6
  inhibitor of ALK2, ALK3, and ALK6: highly potent

B1: FGF18: FGF activator, member of the FGF8 subfamily (protein, UniProt O76093 28-207, looked up)
Fibroblast growth factor 18: EENVDFRIHVENQTRARDDVSRKQLRLYQLYSRTSGKHIQVLGRRISARGEDGDKYAQLLVETDTFGSQVRIKGKETEFYLCMNRKGKLVGKPDGTSKECVFIEKVLENNYTALMSAKYSGWYVGFTKKGRPRKGPKTRENQQDVHFMKRYPKGQPELQKPFKYTTVTKRSRRIRPTHPA
[1]; Wnt-boost protocol, FGF18 day 12 to day 16
  expression of EN1: high expression
